For assay [1], the system named is rVSV-GFP-∆G-Spike, SARS-CoV-2 Omicron B.A1 spike. As to conditions: 1 h.
Assay [2] relates to rVSV-GFP-∆G-Spike, SARS-CoV-2 Delta spike. As to conditions: 1 h.

pIC50: −log10 of the molar value. Ends that are not written are not given here.

Among the data in paper PMC12029774 (Molecules, 2025) are IC50 values, retold here.

Usually pIC50 stands for −log10 of the IC50, conventionally taken in molar units. Lower therefore signals a large IC50. In the case of EWHGAHIKVTQLF-NH2 [PEP10], the negative-log IC50 (pIC50) in assay [1] is 3.85; in assay [2], 4.33.
